According to ChEMBL document CHEMBL1140311, “Design and synthesis of new nonsteroidal glucocorticoid modulators through application of an "agreement docking" method” (J Med Chem, 2005):

Legend:
[1] = Binding affinity for glucocorticoid receptor
[2] = molecular target: T1, Glucocorticoid receptor (Homo sapiens, UniProt P04150); assay: Antagonist activity for Glucocorticoid receptor in MMTV transactivation assay in human A549 lung epithelial cells at 10 uM; assay type: functional, cell-based
T1 sequence (P04150 whole entry): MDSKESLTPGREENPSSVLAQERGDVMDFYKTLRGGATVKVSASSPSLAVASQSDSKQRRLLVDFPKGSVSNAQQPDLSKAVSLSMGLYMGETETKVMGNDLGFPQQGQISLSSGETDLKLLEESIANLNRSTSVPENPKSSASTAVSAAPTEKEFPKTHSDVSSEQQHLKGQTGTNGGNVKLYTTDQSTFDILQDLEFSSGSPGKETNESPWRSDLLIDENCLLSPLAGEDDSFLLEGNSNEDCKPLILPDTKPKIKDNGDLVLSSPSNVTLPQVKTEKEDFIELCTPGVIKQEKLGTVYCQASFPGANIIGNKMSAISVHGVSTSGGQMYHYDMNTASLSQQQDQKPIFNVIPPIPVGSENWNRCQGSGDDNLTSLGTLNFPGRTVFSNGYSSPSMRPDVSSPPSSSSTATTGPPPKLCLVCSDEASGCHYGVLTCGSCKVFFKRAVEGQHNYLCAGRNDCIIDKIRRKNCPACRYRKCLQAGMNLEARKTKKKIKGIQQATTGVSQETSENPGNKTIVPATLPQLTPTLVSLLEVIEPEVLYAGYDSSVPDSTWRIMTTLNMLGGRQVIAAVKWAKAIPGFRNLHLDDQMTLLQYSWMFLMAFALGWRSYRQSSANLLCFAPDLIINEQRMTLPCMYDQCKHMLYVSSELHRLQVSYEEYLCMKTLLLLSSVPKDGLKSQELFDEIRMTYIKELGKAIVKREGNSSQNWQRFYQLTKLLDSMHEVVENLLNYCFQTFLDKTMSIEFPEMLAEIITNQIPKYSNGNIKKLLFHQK

[3] = molecular target: T2, Glucocorticoid receptor (Homo sapiens) (UniProt P04150); assay: Glucocorticoid receptor mediated transrepression of NFkB reporter gene in human A549 lung epithelial cells at 10 uM; assay type: functional, cell-based
T2 sequence (whole entry): T1 sequence (P04150 whole entry)

[4] = molecular target: T1, Glucocorticoid receptor; assay: Glucocorticoid receptor mediated transrepression of NFkB reporter gene in human A549 lung epithelial cells; assay type: functional, cell-based

| Log IC50 [1] | IC50 [2] [nM] | Max inhibition [3] [%] | IC50 [4] [nM] | SMILES |
| --- | --- | --- | --- | --- |
| -7.81 | 4790 | 73 |  | Cc1noc(=O)c2ccc(NC(=O)C(O)(CC3CCc4ccccc43)C(F)(F)F)cc12 (configuration not stated) |
| -7.15 | 3890 |  |  | Cc1noc(=O)c2ccc(NC(=O)C(O)(CC3CCCc4ccccc43)C(F)(F)F)cc12 (stereo in doubt; 9d (D2E2)) [listing 1 of 2 here] |
|  |  | 23 |  | Cc1noc(=O)c2ccc(NC(=O)C(O)(CC3CCCc4ccccc43)C(F)(F)F)cc12 (stereo in doubt; 9d (D2E2)) [listing 2 of 2 here] |
| -8.08 | 562 |  |  | Cc1noc(=O)c2ccc(NC(=O)C(O)(CC3CCCc4ccccc43)C(F)(F)F)cc12 (stereo in doubt; 9e (D1E1)) [listing 1 of 2 here] |
|  |  | 51 |  | Cc1noc(=O)c2ccc(NC(=O)C(O)(CC3CCCc4ccccc43)C(F)(F)F)cc12 (stereo in doubt; 9e (D1E1)) [listing 2 of 2 here] |
| -8.57 | 708 |  | 145 | Cc1noc(=O)c2ccc(NC(=O)C(O)(CC3CCCCc4ccccc43)C(F)(F)F)cc12 (stereo in doubt; 15a (D1E2)) [listing 1 of 2 here] |
|  |  | 60 |  | Cc1noc(=O)c2ccc(NC(=O)C(O)(CC3CCCCc4ccccc43)C(F)(F)F)cc12 (stereo in doubt; 15a (D1E2)) [listing 2 of 2 here] |
| -7.75 | 1000 |  |  | Cc1noc(=O)c2ccc(NC(=O)C(O)(CC3CCCCc4ccccc43)C(F)(F)F)cc12 (stereo in doubt; 15b (D2E1)) [listing 1 of 2 here] |
|  |  | 24 |  | Cc1noc(=O)c2ccc(NC(=O)C(O)(CC3CCCCc4ccccc43)C(F)(F)F)cc12 (stereo in doubt; 15b (D2E1)) [listing 2 of 2 here] |
| -8.1 |  |  |  | C[C@@H]1C[C@H]2[C@@H]3CCC4=CC(=O)C=C[C@]4(C)[C@@]3(F)[C@@H](O)C[C@]2(C)[C@@]1(O)C(=O)CO [DEXAMETHASONE] |
